Consider four compounds from the NIST ThermoML archive (doi:10.1016/j.tca.2011.06.003).

Numbers after ± are expanded uncertainties.

For the series the following is noted: 298.15 K, 101.33 kPa, Liquid; for viscosity: Capillary tube (Ostwald / Ubbelohde) method; for speed of sound: Sing-around technique in a fixed-path interferometer; for mass density: Vibrating tube method.

As to `CC(C)O` [propan-2-ol], the viscosity (usually the internal friction of a fluid under shear) is 2.063 ± 0.013 mPa·s; the speed of sound (commonly the propagation velocity of pressure waves in the medium) is given as 1140.4 ± 0.8 m/s; the mass density – broadly, mass per unit of volume – amounted to 781.482 ± 0.15 kg/m3.
As to `NCCNCCN` [di(2-aminoethyl)amine], the viscosity is 5.627 ± 0.033 mPa·s, the speed of sound is listed as 1670.5 ± 1 m/s and the mass density was 945.548 ± 0.099 kg/m3.
As for `CCCCO` [butan-1-ol], the viscosity turned out to be 2.565 ± 0.016 mPa·s, the speed of sound is 1241.1 ± 0.8 m/s and the mass density turned out to be 805.953 ± 0.14 kg/m3.
`CC(C)CO` [2-methyl-1-propanol]: the viscosity is given as 3.307 ± 0.02 mPa·s, the speed of sound stood at 1188.8 ± 0.8 m/s and the mass density turned out to be 798.104 ± 0.14 kg/m3.
